In US12649907B2, “Alternate detergents for viral inactivation” (AMGEN INC., priority 2019, dated 2026):
Several values for one entry are separate records, joined by “and”; a condition that tells them apart may be missing. Equal values may be shown once.

Assays:
[1] = system: xMuLV; assay: Concentration study, lowest concentration to inactivate virus; assay type: cell-based, xenotropic murine leukemia virus; details: 15° C., 30-minute incubation
[2] = system: xMuLV; assay: Kinetic study of detergents, TCID50 LRV in host cell culture fluid matrices; assay type: cell-based, xenotropic murine leukemia virus; details: for Clearance of xMuLV within 30 minutes: 15° C.
[3] = system: xMuLV; assay type: cell-based, xenotropic murine leukemia virus; details: initial screen, 10× CMC or 10% w/v, 30 minutes, 15° C., 5% virus spike, PG4 cells
[4] = Turbidity of detergent spiked HCCF; assay type: physicochemical; details: HCCF spiked at five times CMC, room temperature 5 days and 2-8° C. 7 days
Procedure: Determination of turbidity was used to measure the stability of detergent spiked samples. Increased turbidity of the sample would reflect a precipitation of the protein molecule. 100 mL of harvested cell culture fluid (HCCF) collected from cultures of each molecule were subjected to four conditions: HCCF containing no detergent (control), APO128, APO129 and Triton X-100. The detergents were spiked at five times the detergent's critical micelle concentration (CMC) values, Triton-X: […] Two sample sets were generated for each molecule; one set was kept at room temperature for 5 days. The second set was kept at 2-8° C. for 7 days. The turbidity of each sample was measured using a turbidimeter (Hach Turbidime[…] 46500-00, Loveland, CO) on days 0, 1, 2, 5, and 7.

[5] = system: PRV; assay type: cell-based, pseudorabies herpes virus
[6] = system: MMV; assay: Concentration study, lowest concentration to inactivate virus; assay type: cell-based, mouse minute virus
[7] = system: xMuLV; assay: Temperature-dependent study, TCID50 LRV in host cell culture fluid matrices; assay type: cell-based, xenotropic murine leukemia virus; details: for Viral inactivation in the presence of therapeutic modalities: between 30 seconds and 30 minutes, temperatures as low as 5° C. and 15° C.; for Inactivation at 30 minutes at both 5° C. and 15° C.: mAb, BiTE ®, fusion protein matrices; for Inactivation towards xMuLV at any temperature tested: in product matrices; for average LRV: process temperature of 15° C., average over modalities
[8] = as indicated by the Hampton Kit; cited from earlier work

Row | Molecule | Cytopathic effects (CPE) at 2.5×CMC [1] | LRV 30 s ([2]; BiTE ® #1, 15° C.) | LRV 10 min ([2]; BiTE ® #1, 15° C.) | LRV 30 min ([2]; BiTE ® #1, 15° C.) | LRV 30 s ([2]; fusion protein #1, 15° C.) | LRV 10 min ([2]; fusion protein #1, 15° C.) | LRV 30 min ([2]; fusion protein #1, 15° C.) | LRV 30 s ([2]; mAb #1, 15° C.) | LRV 10 min ([2]; mAb #1, 15° C.) | LRV 30 min ([2]; mAb #1, 15° C.) | Precipitation of protein modalities (turbidity) [4] | Cytopathic effects (CPE) at 2.5×CMC [5] | Cytopathic effects (CPE) at 2.5×CMC [6] | LRV BiTE ® ([7]; 5° C., 30 minutes, 5× CMC) | LRV fusion protein ([7]; 5° C., 30 minutes, 5× CMC) | LRV mAb ([7]; 5° C., 30 minutes, 5× CMC) | LRV BiTE ® ([7]; 15° C., 30 minutes, 5× CMC) | LRV fusion protein ([7]; 15° C., 30 minutes, 5× CMC) | LRV mAb ([7]; 15° C., 30 minutes, 5× CMC) | CMC [8] [mM] | further results
1 | CCCCCCCCCCCCOCCOCCOCCOCCOCCOCCOCCOCCO [Anapoe C12E8, 3,6,9,12,15,18,21,24-oxtaoxahexatriacontan-1-ol] | showed cytopathic effects (CPE) | ≥3.32 ± 0.35 | ≥3.32 ± 0.35 | ≥3.32 ± 0.35 | ≥3.99 ± 0.42 | ≥3.99 ± 0.42 | ≥3.99 ± 0.42 | ≥3.28 ± 0.34 | ≥3.28 ± 0.34 | ≥3.28 ± 0.34 | none of the detergents tested caused precipitation | showed cytopathic effects (CPE) | showed cytopathic effects (CPE) | ≥4.03 ± 0.18 | ≥4.23 ± 0.33 | ≥4.41 ± 0.37 | ≥4.32 ± 0.35 | ≥4.99 ± 0.42 | ≥3.28 ± 0.34 | 0.11 | Viral inactivation towards xMuLV (CPE) [3]: robustly inactivate the virus; Viral inactivation in the presence of therapeutic modalities [7]: complete viral inactivation; Inactivation at 30 minutes at both 5° C. and 15° C. [7]: complete inactivation
2 | Polyoxyethylene(9)dodecyl ether [Anapoe C12E9] | showed cytopathic effects (CPE) | 2.61 ± 0.68 | ≥2.91 ± 0.43 | ≥2.91 ± 0.43 | 2.56 ± 0.60 | ≥3.32 ± 0.36 | ≥3.32 ± 0.36 | ≥3.23 ± 0.00 | ≥3.23 ± 0.00 | ≥3.23 ± 0.00 | none of the detergents tested caused precipitation | showed cytopathic effects (CPE) | showed cytopathic effects (CPE) | ≥3.84 ± 0.33 | ≥4.19 ± 0.25 | ≥3.91 ± 0.30 | ≥3.91 ± 0.43 | ≥4.32 ± 0.36 | ≥4.23 ± 0.38 | 0.05 | Time to complete inactivation of xMuLV ([2]; BiTE® #1): ≤ 10 min; Time to complete clearance of xMuLV ([2]; all three therapeutic modalities): ≤ 10 min; Time to complete inactivation of xMuLV ([2]; fusion protein #1): ≤ 10 min; Time to complete inactivation of xMuLV ([2]; mAb #1): 0.5 min; Viral inactivation towards xMuLV (CPE) [3]: robustly inactivate the virus; Viral inactivation in the presence of therapeutic modalities [7]: complete viral inactivation; Inactivation at 30 minutes at both 5° C. and 15° C. [7]: complete inactivation
3 | OC[C@H]1O[C@H](O[C@H]2[C@H](O)[C@@H](O)[C@H](OCCCCCC3CCCCC3)O[C@@H]2CO)[C@H](O)[C@@H](O)[C@@H]1O [CYMAL ®-5, 5-cyclohexylpentyl-β-D-maltoside] | showed cytopathic effects (CPE) | 0.19 ± 0.69 | 0.06 ± 0.58 | −0.06 ± 0.69 | −0.06 ± 0.69 | 0.31 ± 0.52 | 0.62 ± 0.48 | 0.25 ± 0.58 | 0.12 ± 0.58 | 0.62 ± 0.50 | – | showed cytopathic effects (CPE) | showed cytopathic effects (CPE) | – | – | – | −0.06 ± 0.69 | 0.62 ± 0.48 | 0.62 ± 0.50 | 5 | Clearance of xMuLV within 30 minutes [2]: did not lead to robust clearance; increase in LRV at higher temperature (22° C.) ([7]; 22° C. versus 15° C.): ~1 log; LRV BiTE ® ([7]; 22° C., 30 minutes, 5× CMC): 1.19 ± 0.29; LRV fusion protein ([7]; 22° C., 30 minutes, 5× CMC): 1.01 ± 0.45; LRV mAb ([7]; 22° C., 30 minutes, 5× CMC): 1.94 ± 0.52; Inactivation towards xMuLV at any temperature tested [7]: did not yield significant inactivation; average LRV [7]: 0.39
4 | CCCCCCCS[C@@H]1O[C@H](CO)[C@@H](O)[C@H](O)[C@H]1O [N-heptyl-β-D-thioglucopyranoside, Heptyl-β-D-1-thioglucopyranoside] | showed cytopathic effects (CPE) | ≥3.03 ± 0.18 | ≥3.03 ± 0.18 | ≥3.03 ± 0.18 | ≥3.16 ± 0.42 | ≥3.16 ± 0.42 | ≥3.16 ± 0.42 | ≥3.22 ± 0.41 | ≥3.22 ± 0.41 | ≥3.22 ± 0.41 | – | showed cytopathic effects (CPE) | showed cytopathic effects (CPE) | ≥4.23 ± 0.33 | ≥4.07 ± 0.30 | ≥4.09 ± 0.25 | ≥4.03 ± 0.18 | ≥4.16 ± 0.42 | ≥4.22 ± 0.41 | 29 | Viral inactivation in the presence of therapeutic modalities [7]: complete viral inactivation; Inactivation at 30 minutes at both 5° C. and 15° C. [7]: complete inactivation
5 | CCCCCCCCCCOP(=O)([O-])OCC[N+](C)(C)C [Fos-Choline ®-10, n-decylphosphocholine] | showed cytopathic effects (CPE) | 0.69 ± 0.44 | 1.57 ± 0.47 | 3.92 ± 0.67 | 0.82 ± 0.57 | 1.82 ± 0.51 | 3.51 ± 0.43 | 0.69 ± 0.31 | 1.61 ± 0.56 | 3.97 ± 0.90 | – | showed cytopathic effects (CPE) | showed cytopathic effects (CPE) | 2.09 ± 0.31 | 1.76 ± 0.41 | 2.54 ± 0.34 | 3.92 ± 0.67 | 3.51 ± 0.43 | 3.97 ± 0.90 | 11 | Clearance of xMuLV within 30 minutes [2]: did not lead to robust clearance; Inactivation towards xMuLV at any temperature tested [7]: did not yield significant inactivation; average LRV [7]: 3.8
6 | polyoxyethylene octyl phenol ether [Triton X-100, reference compound] | – | – | – | – | – | – | – | – | – | – | none of the detergents tested caused precipitation | – | – | – | – | – | – | – | – | – | LRV fusion protein ([7]; Triton X-100 control, 7° C., 800-sample large volume plate (1 LRV increase), Run 1 and Run 2): 5.03 ± 0.58 and 5.04 ± 0.57
